Laboratory results: ChEMBL document CHEMBL1201862, “PubChem BioAssay data set” (2004)
Activity calls are given as the source filed them.

How the values were obtained:
[1] = molecular target: T1, Oxysterols receptor LXR-beta (Homo sapiens, UniProt P55055); assay: LXR agonists, Gal4 luciferase reporter, dose response, counter-screen for ssDAF-12 agonist project, cell-based, luminescence, HEK293, S. stercoralis campaign (AID 720737); assay type: functional; settings: read-out: IC50 (the source's name)
T1 sequence (P55055 whole entry): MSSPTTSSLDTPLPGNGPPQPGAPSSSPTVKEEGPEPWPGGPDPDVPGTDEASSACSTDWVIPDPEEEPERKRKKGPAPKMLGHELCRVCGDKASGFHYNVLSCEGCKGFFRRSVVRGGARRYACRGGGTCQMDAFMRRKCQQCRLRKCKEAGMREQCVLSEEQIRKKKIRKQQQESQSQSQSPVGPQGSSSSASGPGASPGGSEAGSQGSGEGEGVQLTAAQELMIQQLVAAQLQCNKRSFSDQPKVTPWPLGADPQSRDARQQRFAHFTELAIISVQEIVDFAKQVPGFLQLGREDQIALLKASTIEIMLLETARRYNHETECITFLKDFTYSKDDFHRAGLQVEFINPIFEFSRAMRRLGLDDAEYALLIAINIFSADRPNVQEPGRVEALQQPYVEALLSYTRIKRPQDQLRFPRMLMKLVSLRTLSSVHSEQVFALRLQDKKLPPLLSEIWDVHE

[2] = Luminescence-based cell-based high throughput dose response assay to identify activators of the DAF-12 from the parasite S. stercoralis (ssDAF-12).; assay type: functional
[3] = Trypanosoma cruzi growth suppression in host cells – NIH3T3 host cells, beta-gal luminescence, confirmation (AID 2044); assay type: functional, cell-based;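 also: intracellular parasites grown in NIH/3T3 mouse fibroblasts as host cells; luminescent beta-galactosidase reporter signal from transgenic T. cruzi replicating inside host cells; inhibitors lower the luminescence signal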
[4] = molecular target: T2, DNA repair protein RAD52 homolog (Homo sapiens, UniProt P43351); assay type: functional, biochemical
T2 sequence (P43351 whole entry): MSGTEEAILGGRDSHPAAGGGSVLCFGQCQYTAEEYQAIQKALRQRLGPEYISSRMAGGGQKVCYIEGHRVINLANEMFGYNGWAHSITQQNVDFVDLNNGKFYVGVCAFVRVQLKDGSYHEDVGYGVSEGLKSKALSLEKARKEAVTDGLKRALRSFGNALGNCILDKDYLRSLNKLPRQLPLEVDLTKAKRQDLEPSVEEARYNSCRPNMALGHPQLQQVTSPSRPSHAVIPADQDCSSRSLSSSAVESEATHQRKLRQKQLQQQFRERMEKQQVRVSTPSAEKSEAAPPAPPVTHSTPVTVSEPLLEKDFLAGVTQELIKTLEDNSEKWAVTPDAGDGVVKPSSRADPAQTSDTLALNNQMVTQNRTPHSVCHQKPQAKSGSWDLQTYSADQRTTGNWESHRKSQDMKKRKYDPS

[5] = molecular target: FAD-linked sulfhydryl oxidase ALR (Homo sapiens, UniProt P55789); assay: ALR-catalysed DTT oxidation blockers – biochemical, H2O2 detection, luminescence, cherry-pick, dose response (AID 493248)
[6] = molecular target: T3, Glutathione-S-transferase (Schistosoma japonicum, UniProt Q26513); assay: GST-antibody interaction or FRET quenching – biochemical, TR-FRET, artefact control for Vif-APOBEC3G degradation inhibitor project, dose response (AID 1117362); assay type: functional
T3 sequence (Q26513 whole entry): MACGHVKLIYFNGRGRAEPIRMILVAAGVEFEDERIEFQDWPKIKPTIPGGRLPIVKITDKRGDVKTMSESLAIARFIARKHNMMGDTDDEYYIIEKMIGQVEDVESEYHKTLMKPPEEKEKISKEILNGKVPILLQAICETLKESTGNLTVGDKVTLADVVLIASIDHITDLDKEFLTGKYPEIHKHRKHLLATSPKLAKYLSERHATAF

[7] = viability loss in THP-1 monocytes – THP-1 cells, cytotoxicity control for Vif-APOBEC3G degradation inhibitor project, dose response (AID 1117359); assay type: functional; settings: THP-1
[8] = NIH3T3 cell viability loss – ATP luminescence, mouse fibroblasts, counter-screen, dose response (AID 2010); assay type: functional, cell-based;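 also: cells exposed to compound for about 90 hours before reading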
[9] = molecular target: Estrogen receptor beta (Homo sapiens, UniProt Q92731);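 also: recombinant ER-beta bound to coactivator SRC1 peptide in presence of estradiol agonist; inhibitors block coactivator peptide binding and lower the FRET signal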
[10] = molecular target: T4, Protein Tat (Human immunodeficiency virus type 1 group M subtype B (isolate HXB2)(HIV-1), UniProt P04608); assay type: functional;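 also: tat binding to TAR RNA read out by fluorescence polarization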
T4 sequence (P04608 whole entry): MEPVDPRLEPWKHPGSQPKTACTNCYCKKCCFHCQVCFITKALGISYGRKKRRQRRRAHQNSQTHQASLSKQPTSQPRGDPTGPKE

FAD-linked sulfhydryl oxidase ALR, sequence (P55789 whole entry): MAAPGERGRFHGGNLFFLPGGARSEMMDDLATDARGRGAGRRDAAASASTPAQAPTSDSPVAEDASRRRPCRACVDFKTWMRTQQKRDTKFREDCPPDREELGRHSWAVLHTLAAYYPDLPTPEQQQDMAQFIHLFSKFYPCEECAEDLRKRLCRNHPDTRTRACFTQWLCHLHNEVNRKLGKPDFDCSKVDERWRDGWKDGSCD
Estrogen receptor beta, sequence (Q92731 whole entry): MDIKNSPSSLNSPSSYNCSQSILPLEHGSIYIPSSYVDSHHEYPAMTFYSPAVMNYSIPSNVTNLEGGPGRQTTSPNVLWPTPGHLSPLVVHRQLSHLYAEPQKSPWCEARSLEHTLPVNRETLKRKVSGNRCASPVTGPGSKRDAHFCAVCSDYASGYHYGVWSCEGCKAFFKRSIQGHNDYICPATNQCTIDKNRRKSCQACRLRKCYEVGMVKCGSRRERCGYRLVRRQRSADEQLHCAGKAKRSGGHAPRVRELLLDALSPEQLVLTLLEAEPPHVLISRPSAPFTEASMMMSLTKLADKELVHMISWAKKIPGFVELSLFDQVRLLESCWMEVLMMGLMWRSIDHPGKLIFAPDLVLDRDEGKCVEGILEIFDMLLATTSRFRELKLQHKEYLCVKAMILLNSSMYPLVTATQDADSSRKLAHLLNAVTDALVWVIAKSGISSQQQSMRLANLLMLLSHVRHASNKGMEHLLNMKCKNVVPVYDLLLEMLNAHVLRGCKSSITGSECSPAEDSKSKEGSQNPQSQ

For `Cc1nn(Cc2ccccc2)c(Cl)c1/C=N/NC(=O)c1cccnc1`, the EC50 [1] was > 67.5 µM (inactive) and the IC50 [2] was > 67.5 µM (inactive).

For `CC1(C)CC(Nc2ccc(Nc3ccccc3)cc2)CC(C)(C)N1`, the EC50 [3] was 4.14 µM (active), the AC50 [4] was 13.9 µM (active) and the AC50 [5] was 270 nM (active). For the same compound, the IC50 [6] was 64.5 µM (active), the CC50 [7] was > 40 µM (active) and the EC50 [8] was > 60 µM (not active).

In the case of `CCSc1nnc(Cc2cc(=O)[nH]c(=O)[nH]2)n1-c1cc(C)ccc1C`, the IC50 [9] is reported as > 50 µM (not active).

In the case of `CC1(C)Cc2nc3sc4c(SCC(=O)NCc5ccco5)ncnc4c3cc2CO1`, the IC50 [10] is reported as > 100 µM (active).

In the case of `C=CCn1c(COc2ccc(OC)cc2)nnc1SCn1nnc2ccccc2c1=O`, the EC50 [1] is reported as > 67.6 µM (inactive) and the IC50 [2] is reported as > 67.6 µM (inactive).
